From patent US20230021483A1, “[…] […] METHOD AND CLASSIFICATION OF PHARMACEUTICAL COMPONENTS BY USING TRANSCRIPTOMES” (National Institutes of Biomedical Innovation, Health and …, priority 2016, published 2023)

How the values were obtained:
[1] = system: preferentially upregulated genes in LV, SP, LN; assay: Z-score-based differential gene expression analysis (adjuvant group- or adjuvant-associated genes, 40 module mapping, TargetMine annotation); format: in vivo, C57BL/6 mice; conditions: for Rsad2 1436058_at (Group G1, Modules 20) / Shisa5 1423986_a_at (Group G1, Modules 20) / Shisa5 1437503_a_at (Group G1, Modules 20) / Stat1 1450033_a_at (Group G1, Modules 20) / Stat1 1450034_at (Group G1, Modules 20) / Tdrd7 1426716_at (Group G1, Modules 20) / Tor1aip2 1418115_s_at (Group G1, Modules 20) / Tor1aip2 1418116_at (Group G1, Modules 20) / Tor1aip2 1435526_at (Group G1, Modules 20) / Trim12a 1437432_a_at (Group G1, Modules 20) / Uba7 1426970_a_at (Group G1, Modules 20) / Adar 1425405_a_at (Group G1, Modules 20) / Adar 1434268_at (Group G1, Modules 20) / Ddx58 1436562_at (Group G1, Modules 20) / Ddx58 1456890_at (Group G1, Modules 20) / Eif2ak2 1422005_at (Group G1, Modules 20) / G3bp2 1421323_a_at (Group G1, Modules 20) / Gm9706///Isg15 1431591_s_at (Group G1, Modules 20) / H2-T10///H2-T22///H2-T9 1449875_s_at (Group G1, Modules 20) / Ifih1 1426276_at (Group G1, Modules 20) / Ifit1 1450783_at (Group G1, Modules 20) / Ifit3 1449025_at (Group G1, Modules 20) / Irf7 1417244_a_at (Group G1, Modules 20) / Irgm1 1418825_at (Group G1, Modules 20) / Mndal 1426906_at (Group G1, Modules 20) / Pml 1448757_at (Group G1, Modules 20) / Pml 1456103_at (Group G1, Modules 20) / Rnf213 1455500_at (Group G1, Modules 20): ID, LV
How it was run: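 Gene groups for each organ were built from combined z-score cutoffs across adjuvants, ranging from z>1 to z>3. Scores came from fold changes standardized per gene over the whole organ data set, with the three replicate z-scores added per adjuvant; sums above 3 marked preferential expression.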

spleen (SP) = assay: Whole organ transcriptome (GeneChip microarray) of spleen 6 h after adjuvant administration: sDEGs, hierarchical clustering; format: in vivo, C57BL/6 mice; on adjuvant group (cluster) in SP: key: G1 (interferon signaling); G2 (metabolism of lipids and lipoproteins); G3 (response to stress); G4 (response to wounding); G5 (phosphate-containing compound metabolic process); G6 (phagosome)

Compound: Cc1ccc2c(=O)c3cccc(CC(=O)O)c3oc2c1C [DMXAA, 5,6-dimethylxanthenone-4-acetic acid]
- Rsad2 1436058_at (Group G1, Modules 20) ([1]; sample x1): 1.56
- Shisa5 1423986_a_at (Group G1, Modules 20) ([1]; sample x1): 2.03
- Shisa5 1437503_a_at (Group G1, Modules 20) ([1]; sample x1): 2.12
- Stat1 1450033_a_at (Group G1, Modules 20) ([1]; sample x1): 1.5
- Stat1 1450034_at (Group G1, Modules 20) ([1]; sample x1): 1.53
- Tdrd7 1426716_at (Group G1, Modules 20) ([1]; sample x1): 1.6
- Tor1aip2 1418115_s_at (Group G1, Modules 20) ([1]; sample x1): 2.45
- Tor1aip2 1418116_at (Group G1, Modules 20) ([1]; sample x1): 2.19
- Tor1aip2 1435526_at (Group G1, Modules 20) ([1]; sample x1): 2.23
- Trim12a 1437432_a_at (Group G1, Modules 20) ([1]; sample x1): 1.82
- Uba7 1426970_a_at (Group G1, Modules 20) ([1]; sample x1): 1.81
- Adar 1425405_a_at (Group G1, Modules 20) ([1]; sample x2): 1.5
- Adar 1434268_at (Group G1, Modules 20) ([1]; sample x2): 1.52
- Ddx58 1436562_at (Group G1, Modules 20) ([1]; sample x2): 1.54
- Ddx58 1456890_at (Group G1, Modules 20) ([1]; sample x2): 1.93
- Eif2ak2 1422005_at (Group G1, Modules 20) ([1]; sample x2): 1.3
- G3bp2 1421323_a_at (Group G1, Modules 20) ([1]; sample x2): 1.22
- Gm9706///Isg15 1431591_s_at (Group G1, Modules 20) ([1]; sample x2): 1.39
- H2-T10///H2-T22///H2-T9 1449875_s_at (Group G1, Modules 20) ([1]; sample x2): 1.64
- Ifih1 1426276_at (Group G1, Modules 20) ([1]; sample x2): 1.09
- Ifit1 1450783_at (Group G1, Modules 20) ([1]; sample x2): 1.54
- Ifit3 1449025_at (Group G1, Modules 20) ([1]; sample x2): 1.3
- Irf7 1417244_a_at (Group G1, Modules 20) ([1]; sample x2): 1.18
- Irgm1 1418825_at (Group G1, Modules 20) ([1]; sample x2): 1.33
- Mndal 1426906_at (Group G1, Modules 20) ([1]; sample x2): 1.19
- Pml 1448757_at (Group G1, Modules 20) ([1]; sample x2): 1.35
- Pml 1456103_at (Group G1, Modules 20) ([1]; sample x2): 1.34
- Rnf213 1455500_at (Group G1, Modules 20) ([1]; sample x2): 1.2
- Rsad2 1436058_at (Group G1, Modules 20) ([1]; sample x2): 1.25
- Shisa5 1423986_a_at (Group G1, Modules 20) ([1]; sample x2): 1.81
- Shisa5 1437503_a_at (Group G1, Modules 20) ([1]; sample x2): 1.62
- Stat1 1450033_a_at (Group G1, Modules 20) ([1]; sample x2): 1.73
- Stat1 1450034_at (Group G1, Modules 20) ([1]; sample x2): 1.96
- Tdrd7 1426716_at (Group G1, Modules 20) ([1]; sample x2): 1.74
- Tor1aip2 1418115_s_at (Group G1, Modules 20) ([1]; sample x2): 1.52
- Tor1aip2 1418116_at (Group G1, Modules 20) ([1]; sample x2): 1.92
- Tor1aip2 1435526_at (Group G1, Modules 20) ([1]; sample x2): 1.48
- Trim12a 1437432_a_at (Group G1, Modules 20) ([1]; sample x2): 1.56
- Uba7 1426970_a_at (Group G1, Modules 20) ([1]; sample x2): 1.59
- Adar 1425405_a_at (Group G1, Modules 20) ([1]; sample x3): 0.93
- Adar 1434268_at (Group G1, Modules 20) ([1]; sample x3): 0.92
- Ddx58 1436562_at (Group G1, Modules 20) ([1]; sample x3): 1.31
- Ddx58 1456890_at (Group G1, Modules 20) ([1]; sample x3): 1.56
- Eif2ak2 1422005_at (Group G1, Modules 20) ([1]; sample x3): 0.68
- G3bp2 1421323_a_at (Group G1, Modules 20) ([1]; sample x3): 0.71
- Gm9706///Isg15 1431591_s_at (Group G1, Modules 20) ([1]; sample x3): 0.8
- H2-T10///H2-T22///H2-T9 1449875_s_at (Group G1, Modules 20) ([1]; sample x3): 0.51
- Ifih1 1426276_at (Group G1, Modules 20) ([1]; sample x3): 0.78
- Ifit1 1450783_at (Group G1, Modules 20) ([1]; sample x3): 1.04
- Ifit3 1449025_at (Group G1, Modules 20) ([1]; sample x3): 0.74
- Irf7 1417244_a_at (Group G1, Modules 20) ([1]; sample x3): 1
- Irgm1 1418825_at (Group G1, Modules 20) ([1]; sample x3): 0.79
- Mndal 1426906_at (Group G1, Modules 20) ([1]; sample x3): 0.73
- Pml 1448757_at (Group G1, Modules 20) ([1]; sample x3): 0.83
- Pml 1456103_at (Group G1, Modules 20) ([1]; sample x3): 0.34
- Rnf213 1455500_at (Group G1, Modules 20) ([1]; sample x3): 0.97
- Rsad2 1436058_at (Group G1, Modules 20) ([1]; sample x3): 0.44
- Shisa5 1423986_a_at (Group G1, Modules 20) ([1]; sample x3): 1.42
- Shisa5 1437503_a_at (Group G1, Modules 20) ([1]; sample x3): 1.72
- Stat1 1450033_a_at (Group G1, Modules 20) ([1]; sample x3): 1.15
- Stat1 1450034_at (Group G1, Modules 20) ([1]; sample x3): 1.16
- Tdrd7 1426716_at (Group G1, Modules 20) ([1]; sample x3): 1.09
- Tor1aip2 1418115_s_at (Group G1, Modules 20) ([1]; sample x3): 0.98
- Tor1aip2 1418116_at (Group G1, Modules 20) ([1]; sample x3): 1.37
- Tor1aip2 1435526_at (Group G1, Modules 20) ([1]; sample x3): 1.01
- Trim12a 1437432_a_at (Group G1, Modules 20) ([1]; sample x3): 1.11
- Uba7 1426970_a_at (Group G1, Modules 20) ([1]; sample x3): 1.21
- preferentially induced biological process relative to adjuvants targeting the same receptor ([1]; LN, z-scores and 40 module mapping): preferentially induced RNA processing and gene expression responses more than cdiGMP or cGAMP
- adjuvant group-associated biological features ([1]; z-score selected genes, TargetMine and IPA upstream cytokine analyses): strongly associated with type I and type II interferon responses
- adjuvant group (cluster) in SP (spleen (SP); hierarchical clustering): G1
- Number of gene probes with statistically significant changes (sDEGs), SP, Down (spleen (SP); i.d. administration, fold change <0.667, p<0.01, customized PA call=1, 6 h after adjuvant): 48
- Number of gene probes with statistically significant changes (sDEGs), SP, Up (spleen (SP); i.d. administration, fold change >1.5, p<0.01, customized PA call=1, 6 h after adjuvant): 121
